Patent US8309790B2, “Animal models for demyelination disorders” (University of Chicago, priority 2005, dated 2012)
Values joined by “and” are separate entries in the source; they are usually repeats but may differ in a detail not shown here. Equal entries are not always repeated.

Key:
Assay type in all cases: in vivo
[1] = test system: corpus callosum of GFAP/tTA; TRE/IFN-γ; PERK+/− mice; experiment: Remyelination after cuprizone in double transgenic mice on PERK+/+ or PERK+/− background; details: for remyelinated axons: 9 weeks
Source text: The involvement of the ER stress response in the reduction caused by IFN-γ to remyelinate lesions was examined in transgenic mice that were generated to be heterozygous for a loss of function mutation in pancreatic ER kinase (PERK) (Harding, et al., (2001) Mol Cell 7:1153-1163), and to be temporally regulated for expressing INF-γ in the CNS. TRE/IFN-γ mice were first crossed with PERK+/− mice (Harding, et al. (2001) Mol. Cell 7: 1153-1163) on the C57BL/6 background to generate mice the carry the PERK mutation, and the resulting progeny were crossed to GFAP/tTA mice to obtain transgenic mice that were heterozygous for the PERK mutation. The effect of PERK on remyelination in the presence or absence of INF-γ was evaluated as evaluated as a function of the level of myelination of oligodendrocytes in remyelinating lesions and the number of oligodendrocytes present in the remyelinating lesion.
The extent of remyelination was assessed as described in the previous examples in the corpus callosum of PERK+/+ and PERK+/− mice that were made to express INF-γ (DOX− PERK+/+ and DOX− PERK+/−), and in mice in which the expression of INF-γ was repressed (DOX+ PERK+/+ and DOX+ PERK+/−). Remyelination was determined by electron microscopy, and was related to the number of CC1 positive oligodendrocytes and the level of caspase-3 expression in the corpus callosum of all animals. The level of caspase-3 was determined by immunohistochemical methods using anti capsase antibody (active-casoase-3 antibody, 1:50; Cel Signaling Technology) and according to the method described in Example 1. Demyelination was induced in six-week-old GFAP/tTA; TRE/IFN-γ double transgenic mice on a PERK+/− background that had been maintained on doxycycline, by simultaneously treating the mice with 0.2% cuprizone and releasing them from doxycycline (DOX− PERK+/−). Remyelination was allowed to occur by withdrawing cuprizone at week 6.

[2] = test system: CNS of 14-day-old double transgenic mice; experiment: Ectopic expression of IFN-γ in the CNS during development (released from doxycycline at E14), PERK+/+ or PERK+/− background
Source text: To study the effect of INF-γ on the myelination of oligodendrocytes during mouse development, transgenic mice that allow for temporally regulated delivery of IFN-γ to the CNS using the tetracycline (tet) controllable system (Lin, et al. (2004) J. Neurosci. 24: 10074-10083) were generated. To drive tTA expression in astrocytes, the transcriptional regulatory region of the glial fibrillary acidic protein (GFAP) gene was chosen (Brenner, et al. (1994) J. Neurosci. 14: 1030-1037). GFAP/tTA mice were mated with TRE/IFN-γ mice to produce animals hemizygous for both transgenes. When these mice are maintained on doxycycline (DOX+), expression of the IFN-γ transgene is repressed (FIG. 10A); when the double transgenic mice are released from doxycycline (DOX−) INF-γ is expressed. For the purpose of these experiments, mice received doxycycline up to day 14 of development (E14), at which time the experimental animals (DOX−) stopped receiving doxycycline, while the control animals (DOX+) were continuosly fed the dug. The mRNA for IFN-γ could be detected in the DOX− mice as early as 10 days after birth (data not shown).
Real time PCR analysis was performed to determine the levels of expression of INF-γ, MHC-1, BIP, CHOP, and caspase 12. The primers for the PCR reactions for BIP, CHP and caspase 12 are given in example 1. The sense and antisense primers for INF-γ were […] (SEQ ID NO: 39) and […] (SEQ ID NO: 40), respectively; and the sense and antisense primers for MHC-1 were MHC-I sense primer: ATTCCCCAAAGGCCCATGT (SEQ ID NO: 1); and MHC-I antisense primer: […] (SEQ ID NO: 2).
Western blot analysis was performed on the CNS of 14 day old mice to determine the expression of caspase-12 as described in Example 6.
Brain and spinal cord tissue were analyzed using immunohistochemical methods as follows. Anesthetized mice were perfused through the left cardiac ventricle with 4% paraformaldehyde in 0.1M PBS. The half-saggital brains and transcervical spinal cord were removed, postfixed with paraformaldehyde, cryopreserved in 30% sucrose, embedded in OCT and frozen on dry ice. Frozen sections were cut in a cryostat at a thickness of 10 μm. Coronal sections at the fornix region of the corpus callosum corresponding to Sidman sections 241-251 were selected for use, and all comparative analyses were restricted to midline corpus callosum (Sidman, et al. (1971) Atlas of the Mouse Brain and Spinal Cord (Harvard Univ. Press, Cambridge, Mass.). For immunohistochemistry, frozen sections were treated with −20° C. acetone, blocked with PBS containing 10% NGS and 0.1% Triton X-100 and incubated overnight with the primary antibody diluted in blocking solution. Appropriate fluorochrome- or enzyme-labeled secondary antibodies (Vector Laboratories, Burlingame, Calif.) were used for detection. An antibody against CC1 (APC7, 1:50; EMD Biosciences, Inc., La Jolla, Calif.) was used as a marker for mature oligodendrocytes. Antibody against MBP (1:1000; Stemberger Monoclonals, Lutherville, […].) was used to verify the degree of myelination. Antibody against active-caspase-3 (1:50, Cell signaling Technology, Beverly, Mass.) was used as a marker for apoptotic cells. Fluorescent stained sections were mounted with Vectashield mounting medium with DAPI (Vector Laboratories) and visualized with a Zeiss Axioplan fluorescence microscope. Images were captured using a Photometrics PXL CCD camera connected to an Apple Macintosh computer using the Open Lab software suite. Immunopositive cells were quantified by counting positive cells within the median of the corpus callosum, confined to an area of 0.04 mm^2. Only those cells with nuclei observable by DAPI staining were counted. Each MBP immunostaining slide was scored on a scale of zero to four. A score of zero indicates complete demyelination, and a score of four indicates normal myelination in the corpus callosum of adult mice. […]

[3] = test system: mice with EAE; experiment: EAE, CNS delivery of INF-γ at the onset of EAE, double (PERK+/+) and triple (PERK+/−) mice; details: for Mean of maximum clinical score (mean ± S.D.): 0-5 point scale; for Day of onset of disease (PID: postimmunization day): n = 25; for expression of iNOs, TNF-a, IL-2, IL-12 and IL-10 in the spinal cord: PID 14 (EAE onset), DOX− vs DOX+
[4] = CNS, PND 14, DOX− released at E14, real-time PCR

interferon-γ [IFN-γ]
remyelinated axons ([1]; DOX− PERK+/+ mice): 31.1%±7.6% | number of CC1 positive oligodendrocytes ([1]; DOX− PERK+/+ mice, corpus callosum, week 9): 123.2±27.5 /0.04 mm^2 | remyelinated axons ([1]; DOX− PERK+/− mice, 3 weeks after cuprizone removed): 15.6%±7.6% | CC1 positive oligodendrocytes in the corpus callosum ([1]; DOX− PERK+/− mice, week 9): only a few oligodendrocytes were detected | number of oligodendrocytes positive for caspase-3, DOX− PERK+/− relative to DOX− PERK+/+ ([1]; week 9): 2.3 times | caspase-12 expression ([2]; CNS, PND 14, DOX− released at E14): strongly enhanced | BIP expression [2, 4]: approximately 1.6 times the control levels | CHOP expression [2, 4]: ~2 times the control levels | mice that experienced tonic seizures ([2]; E14 DOX− PERK+/−): approximately two-thirds | decrease of oligodendrocyte numbers in the spinal cord ([2]; IFN-γ expressing mice on a PERK+/− background, 14-day-old, CC1): more than 50% | unmyelinated axons in the spinal cord ([2]; PERK+/− mice that express IFN-γ in the CNS, 14-day-old): 81%±14.9% | number of TUNEL positive oligodendrocytes in the cervical spinal cord, PERK+/− relative to wild-type background ([2]; released from doxycycline at E14): 2.5 times | mice that died by post natal day (PND) 27 ([2]; released from doxycycline at E14, PERK+/− background): more than 90% | survival ([2]; released from doxycycline at E14, wild-type background): normal survival | unmyelinated axons in the spinal cord ([2]; wild-type background, released from doxycycline at E14): 30%±12.9% | Mean of maximum clinical score (mean ± S.D.) ([3]; DOX− double mice): 1.63 ± 0.51 | MBP mRNA in the spinal cord compared to age-matched naïve mice ([3]; DOX− double mice, PID17, real-time PCR): not significantly decreased | Day of onset of disease (PID: postimmunization day) ([3]; DOX− double mice): 14.7 ± 1.4 | Incidence of hind limb paralysis ([3]; DOX− double mice, listed as INF-γ): 2 of 25 and 2/25 | Incidence of hind limb paralysis ([3]; DOX− triple mice (PERK+/−)): 18/25 | Mean of maximum clinical score (mean ± S.D.) ([3]; DOX− triple mice (PERK+/−)): 2.71 ± 1.11 | Day of onset of disease (PID: postimmunization day) ([3]; DOX− triple mice (PERK+/−)): 13.6 ± 0.8 | expression of iNOs, TNF-a, IL-2, IL-12 and IL-10 in the spinal cord [3]: strongly enhanced | expression of iNOs, TNF-a, IL-2, IL-12 and IL-10 in the spinal cord ([3]; listed as INF-γ): increased | expression of IL-2 and IL-5 in the spinal cord ([3]; PID 14, DOX− vs DOX+): did not affect | CD3 positive T cell infiltration in the spinal cord ([3]; at EAE onset): did not significantly affect | CD11b positive monocyte infiltration in the spinal cord ([3]; at EAE onset): increased | CD11b positive monocyte infiltration ([3]; at the peak of disease): did not change | expression of iNOs or TNF-γ ([3]; at the peak of disease): did not significantly affect | EAE disease course ([3]; mice heterozygous for the PERK mutation): did not ameliorate | PERK-eIF2α pathway in oligodendrocytes (p-PERK, p-eIF2α, CC1 colocalization) ([3]; spinal cord, EAE onset): markedly activated
